From ChEMBL document CHEMBL5608237, “Merging Natural Product Structures with Pharmaceutical Leads: Unnatural Enantiomers of Estranes as Glucocorticoid Receptor Modulators That Suppress TNF-α and IL-6 Release” (J Med Chem, 2024) come the findings set out here.

SMILES strings stand for the structures.

One experiment addresses T1, Androgen receptor (Homo sapiens, UniProt P10275).
T1 sequence (P10275 whole entry): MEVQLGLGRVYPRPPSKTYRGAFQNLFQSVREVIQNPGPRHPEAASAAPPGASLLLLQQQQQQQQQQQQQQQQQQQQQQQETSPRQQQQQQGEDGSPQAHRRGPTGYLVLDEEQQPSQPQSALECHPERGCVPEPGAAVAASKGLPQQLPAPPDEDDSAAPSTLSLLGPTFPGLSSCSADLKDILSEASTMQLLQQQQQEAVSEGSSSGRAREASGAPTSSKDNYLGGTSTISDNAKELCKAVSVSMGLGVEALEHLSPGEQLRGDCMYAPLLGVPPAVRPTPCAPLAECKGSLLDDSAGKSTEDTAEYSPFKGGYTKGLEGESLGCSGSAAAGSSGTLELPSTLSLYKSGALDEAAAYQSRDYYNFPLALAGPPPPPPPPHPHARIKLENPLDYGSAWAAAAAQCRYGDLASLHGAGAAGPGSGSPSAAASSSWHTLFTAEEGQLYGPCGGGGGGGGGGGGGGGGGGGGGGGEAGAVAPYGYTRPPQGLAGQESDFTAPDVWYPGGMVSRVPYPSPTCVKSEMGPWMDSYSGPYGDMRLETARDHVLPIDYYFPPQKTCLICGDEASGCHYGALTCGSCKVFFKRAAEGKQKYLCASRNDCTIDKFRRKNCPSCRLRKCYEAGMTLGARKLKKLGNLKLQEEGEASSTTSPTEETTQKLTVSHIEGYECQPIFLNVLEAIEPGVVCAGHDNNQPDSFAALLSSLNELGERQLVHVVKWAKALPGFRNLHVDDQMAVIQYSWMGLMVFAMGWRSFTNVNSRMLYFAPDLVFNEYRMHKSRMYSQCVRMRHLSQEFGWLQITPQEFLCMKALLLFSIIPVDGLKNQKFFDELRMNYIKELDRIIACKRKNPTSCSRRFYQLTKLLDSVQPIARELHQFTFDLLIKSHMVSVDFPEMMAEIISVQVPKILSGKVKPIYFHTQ
The experiment can be described thus: Antagonist activity at human androgen receptor transfected in African green monkey CV-1 cells cotransfected with genetic response element-luciferase reporter gene assessed as inhibition of 5alpha-dihydro-11-keto testosterone induced response incubated for 22 hrs by luciferase detection reagent based assay. It counts as cell-based.

Experiment [1] can be described thus: Inhibition of TNF alpha production in recombinant human IL-1 beta induced A549 cells assessed as maximum inhibition preincubated with compound for 1 hr followed by IL-1 beta addition and measured after 20 hrs by MSD assay relative to control. To be noted: time 21 hrs. The class given is functional.
The nature of experiment [2]: Inhibition of IL-6 production in recombinant human IL-1 beta induced A549 cells assessed as maximum inhibition preincubated with compound for 1 hr followed by IL-1 beta addition and measured after 20 hrs by MSD assay relative to control. The class given is functional. The note with it: time 21 hrs.

As for `Cc1ncncc1Nc1ccc2c(c1)CCC1=C3C[C@H](O)C[C@]3(C)CC[C@]12Cc1ccccc1`, the concentration for half-maximal inhibition (IC50) (usually the concentration that inhibits the measured activity by half) on Androgen receptor is greater than 10000 nM.

In the case of `Cc1ncncc1Nc1ccc2c(c1)CCC1=C3C[C@@H](O)C[C@]3(C)CC[C@]12Cc1ccccc1`, the IC50 at Androgen receptor is greater than 10000 nM.

Take `Cc1ncccc1NC(=O)c1ccc2c(c1)C(=O)C[C@@H]1C[C@@](O)(c3ccccc3)[C@H](O)C[C@@]21Cc1ccccc1`: the “inhibition (INH)” value in experiment [1] and in experiment [2] was 60% each time.

On to `Cc1ncccc1Nc1ccc2c(c1)CCC1=C3C[C@@H](O)C[C@]3(C)CC[C@]12C`, for which the IC50 at Androgen receptor turned out to be 401 nM.

On to `Cc1ncccc1Nc1ccc2c(c1)CCC1=C3C[C@@H](O)C[C@]3(C)CC[C@]12Cc1ccccc1`, for which the IC50 on Androgen receptor turned out to be 174 nM.

In the case of `Cc1ncccc1NC(=O)c1ccc2c(c1)CC[C@@H]1C[C@@](O)(C(F)(F)F)CC[C@@]21Cc1ccccc1` [DAGROCORAT], the “inhibition (INH)” value in experiment [1] and in experiment [2] was 60% each time.

On to `C[C@@H]1C[C@H]2[C@@H]3CCC4=CC(=O)C=C[C@]4(C)[C@@]3(F)[C@@H](O)C[C@]2(C)[C@@]1(O)C(=O)CO` [DEXAMETHASONE], for which the results for the Imax in experiment [1] and in experiment [2] were 100% and 98%, respectively.

For `CC#C[C@]1(O)CC[C@H]2[C@@H]3CCC4=CC(=O)CCC4=C3[C@@H](c3ccc(N(C)C)cc3)C[C@@]21C` [MIFEPRISTONE], the “inhibition (INH)” value in experiment [2] is less than 20%.
